Source: patent publication US11162123B2, “Glutamine synthetase reaction and method for quantifying ammonia utilizing the same” (ARKRAY, Inc., priority 2017, dated 2021)
Like-named read-outs stand apart in the source and are kept apart here.

What was measured:
[1] = molecular target: Glutamine synthetase (GST) (Homo sapiens, UniProt P15104); conditions: known from the art; cited from earlier work
glutamine synthetase [2] = tested on: glutamine synthetase
Procedure: (§1) Reagent A was mixed with a sample immediately before the reaction, and then reagent B was added to the resulting mixture to perform the reaction. The ammonia concentration was measured based on the increase in the absorbance at 340 nm during the period of 300 seconds after the beginning of the reaction. To the sample, calcium was added at various concentrations (180, 340, 530, or 700 ppm). The liquid volumes of the reagents were as follows: reagent A, 140 μL; reagent B, 35 μL; sample, 10 μL.
Subsequently, in what step calcium affects the ammonia measurement reaction was investigated. […] Since ADP is a substrate of ADP-dependent hexokinase, the effect of calcium in the sample on the reactions of enzymes excluding glutamine synthetase can be investigated. Similarly, each of G6P and NADH was added as a sample to the reaction system to investigate the reaction using G6P or NADH as a substrate.

glutamine synthetase [3] = tested on: glutamine synthetase; remark: listed apart in the source
Procedure: After mixing the components, a base material was impregnated therewith. After drying the base material, a test liquid (10,000 N-μg/dL aqueous ammonia solution supplemented with 0, 10, 30, 60, or 80 ppm calcium) was added thereto, followed by allowing the reaction to proceed at room temperature for 300 seconds and then measuring the reflectance (ΔR). By calculating the difference (ΔR) between the reflectance R of the sample to which calcium was not added and the reflectance R of each sample to which calcium was added, the effect of calcium in the ammonia measurement system can be investigated.

[4] = tested on: enzymes excluding glutamine synthetase; test: liquid reaction system with ADP, G6P or NADH added as sample (enzymes excluding glutamine synthetase); format: biochemical
Procedure: as §1
Since ADP is a substrate of ADP-dependent hexokinase, the effect of calcium in the sample on the reactions of enzymes excluding glutamine synthetase can be investigated. Similarly, each of G6P and NADH was added as a sample to the reaction system to investigate the reaction using G6P or NADH as a substrate.

Chain of Glutamine synthetase (GST) (P15104 whole entry, species assumed): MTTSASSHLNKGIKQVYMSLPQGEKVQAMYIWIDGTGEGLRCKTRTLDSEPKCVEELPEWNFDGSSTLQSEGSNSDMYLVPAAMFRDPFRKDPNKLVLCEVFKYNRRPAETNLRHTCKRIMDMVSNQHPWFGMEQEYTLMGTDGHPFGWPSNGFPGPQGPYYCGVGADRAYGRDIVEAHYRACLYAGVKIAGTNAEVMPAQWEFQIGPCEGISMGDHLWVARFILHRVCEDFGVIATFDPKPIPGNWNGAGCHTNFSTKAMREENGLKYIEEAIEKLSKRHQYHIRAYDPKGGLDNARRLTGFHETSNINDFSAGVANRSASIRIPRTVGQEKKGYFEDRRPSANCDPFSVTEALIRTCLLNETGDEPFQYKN

For `CP(=O)(O)CC[C@H](N)C(=O)O` [phosphinothricin], the “inhibition of glutamine synthetase” value [1] is listed as “inhibited”.

For `O=C(O)CN(CCN(CC(=O)O)CC(=O)O)CC(=O)O` [EDTA, ethylenediaminetetraacetic acid, reference compound], the “measured value of ammonia versus calcium concentration” value (glutamine synthetase [2]; addition of EDTA (2.00 mM in reagent A), calcium 180-700 ppm in sample) was “does not change dependently on the calcium concentration” and the “change in reflectance (change in ΔR) caused by calcium” value (glutamine synthetase [3]; addition of 5, 10 or 20 mM EDTA) was “improved the change in the reflectance”.

In the case of `CS(=N)(=O)CC[C@H](N)C(=O)O` (stereo partly drawn) [L-methionine sulfoximine], the “inhibition of glutamine synthetase” value [1] is listed as “inhibited”.

With `[Ca+2]` [calcium] the “step of the ammonia measurement reaction affected by calcium” value (glutamine synthetase [2]; conclusion from substrate-addition experiments) was “affects glutamine synthetase in the first step”, the “measured value of ammonia versus calcium concentration” value (glutamine synthetase [2]; no addition of EDTA, calcium 180, 340, 530 or 700 ppm in sample, absorbance 340 nm, 300 seconds) was “decreases dependently on the calcium concentration” and the “effect of calcium on measured value, ADP added as sample” value ([4]; ADP as sample, with and without EDTA) was “disappearance of the effect of calcium”. The “effect of calcium on measured value, G6P or NADH added as sample” value ([4]; G6P or NADH as sample) was “no effect of calcium was found” and the “measured value (reflectance, ΔR) versus calcium concentration” value (glutamine synthetase [3]; no EDTA, test liquid with 0, 10, 30, 60 or 80 ppm calcium, room temperature, 300 seconds) was “changed dependently on the calcium concentration”.
